# Measured values as given in patent publication US20200261520A1, “Combination Therapies of Hepatitis B Virus (HBV)-infected individuals using Parapoxvirus Ovis (PPVO) and at Least one Further Antiviral Drug” (priority 2017, published 2020).
# Key:
# [1] = test system: woodchuck hepatitis virus (WHV); test: T-cell proliferative responses of PBMCs to WHV peptides (CellTiter-Glo, stimulation index); type: in vivo; conditions: chronic WHV carrier woodchucks; fold change from baseline at T0
# Protocol: In woodchucks, over a 36-week period, AIC649 was administered i.v. and then i.m., alone or in combination with an initial 12 weeks of the direct acting antiviral, ETV, given orally.
# (§1) The efficacy of AIC649 monotherapy, ETV monotherapy, or combination AIC649+ETV therapy was compared to a placebo control group (N=5 animals/group). […] Daily observations, changes in body weight and body temperatures, changes in hematology and clinical chemistry, as well as necropsy and histopathology were assessed for determination of safety.
# PBMCs were isolated from whole blood and cultured for 5 days in the presence of DMSO (negative control), lipopolysaccharide (LPS, positive control), recombinant human IL-2 (positive control), or pools of peptides covering the entire WHcAg, WHsAg, or WHxAg, respectively. Using the CellTiter-Glo® assay, the number of viable cells in each test well was assessed using a luminescent signal proportional to the amount of ATP present, and thus to the number of viable cells. Cultures were assessed after 5 days and a stimulation index (SI) was derived relative to the negative controls as a measure of T-cell responses to specific antigens/stimuli:
# SI=Test luminescence/negative control luminescence
# [2] = Safety assessment (mortality, observations, body weight, temperature, hematology, clinical chemistry, necropsy, histopathology); type: in vivo, woodchuck; conditions: n=5/group at start of experiment; week of death
# Protocol: Treatment-induced changes in viremia, antigenemia, immunological parameters, as well as the induction of WHsAg antibody seroconversion were evaluated for determination of antiviral effects. Daily observations, changes in body weight and body temperatures, changes in hematology and clinical chemistry, as well as necropsy and histopathology were assessed for determination of safety.
# as §1, with “safety. […]” for “safety.”
# Mortality was assessed daily for all animals.
# Body temperature and weight assessments were performed together, weekly. The animal identification number and body temperature were read from a microchip implanted in the dorsal base of the tail using a hand-held chip reader (Biomedical Data Systems Inc.). […]
# Uncoagulated whole blood was collected in EDTA tubes. […] Samples were analyzed the following day using an automated cell counter system (coulter) with program settings for woodchucks (Bellezza, C. A., et al., 2002, Elsevier. p. 309-328). […]
compound,measurement,setting,value
"C=C1[C@H](CO)[C@@H](O)C[C@@H]1n1cnc2c(=O)[nH]c(N)nc21 [ETV, Entecavir]",cell mediated immune responses (PBMCs stimulated with WHsAg peptides),[1],not
same,deaths in group,[2],"1 animal each at week 4, 14, 21, 29"
